Measured values: patent US20120052056A1, “COMPOSITION FOR IMPROVING BLOOD CIRCULATION CONTAINING FERMENTED TEA, AND PHARMACEUTICAL AND HEALTH-FOOD COMPOSITIONS COMPRISING THE SAME” (priority 2009, published 2012)

System: rats fed high-cholesterol diet inducing hyperlipidemia
Test: Reduction in the serum and liver lipid levels in animal model
Assay type: in vivo
Conditions: 200 mg/kg oral once a day for 4 weeks with hyperlipidemia-inducing diet
Experimental: Eight 8-week-old female rats weighing 250-300 g were housed in each polycarbonate cage under a 12 hr light/12 hr dark cycle at a constant temperature of 22±2° C. and a relative humidity of 55±15%. The animals were fed with a normal diet and a high-cholesterol diet and given drinking water ad libitum. The test animals were divided into four groups: a normal group, a control group, a positive control group, and a test group. The normal group was provided only with general feed, the control group was fed with a normal diet containing 1% cholesterol and 0.5% cholic acid to cause hyperlipidemia, and the positive control group was administered with fenofibric acid (200 mg/kg) that is used as an agent for treating hyperlipidemia, in which the fenofibric acid was suspended in 1% methyl cellulose (MC) and administered orally. The test group was administered orally with the post-fermented tea extract and the green tea extract every day together with a hyperlipidemia-inducing diet, in which the post-fermented tea extract and the green tea extract (200 mg/kg) were provided by oral administration once a day for 4 weeks. After the rats of each group were fasted for 12 hours, a blood sample was taken from the orbital vein and centrifuged at 10000 rcf for 10 minutes. The resulting serum was used to evaluate blood total cholesterol, LDL cholesterol and HDL-cholesterol levels. The rat's liver was collected and used to evaluate the liver cholesterol and triglyceride levels. The above analysis was carried out using an automatic blood analyzer and a Roche diagnostic kit, and the results of the analysis are shown in Table 4 (serum lipids) below and Table 5 (liver lipids).

CC(C)(Oc1ccc(C(=O)c2ccc(Cl)cc2)cc1)C(=O)O [Positive control group, fenofibric acid]
Liver lipids: Total cholesterol (liver): 15.43 ± 0.52 µg/mg
Liver lipids: Triglyceride (liver): 185.39 ± 23.84 µg/mg
Serum lipids: HDL-cholesterol (serum): 87.89 ± 6.84 mg/dL
Serum lipids: LDL-cholesterol (serum): 75.34 ± 2.80 mg/dL
Serum lipids: Total cholesterol (serum): 112.42 ± 13.33 mg/dL
